The values that follow come from patent US6869611B1, “Composition and method of effecting superficial chemical skin peels” (priority 1996, dated 2005).

Where only a bound is given, the exact number is not on record here.

The conditions of series [1]: cited from earlier work.
Series [2] is described as follows: saturation concentration / solubility of salicylic acid in solvent. It counts as physicochemical. Particulars: solution temperature of 25° C.

`O=C(O)c1ccccc1O` [salicylic acid, 2-hydroxybenzoic acid]: in series [1], the solubility in water entry is “relatively insoluble in water”. For the same compound, the “saturation concentration of salicylic acid in ethanol” value in series [2] is above 30 wt %.
